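Method: 48-hour compound exposure of cells in 96-well plates, five concentrations, linear interpolation of endpoints. Abbreviation: GI50, concentration required for 50% inhibition of growth. Definition used: TGI = concentration required for complete inhibition of growth.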
What was measured:
Experiment in all cases: DTP human tumour cell line panel, 48 h
[1] = tested on: RPMI-8226 leukemia
[2] = tested on: SK-MEL-2 melanoma
[3] = tested on: UO-31 renal
[4] = tested on: BT-549 breast
[5] = tested on: NCI/ADR-RES ovarian
[6] = tested on: K-562 leukemia
[7] = tested on: COLO 205 colon
[8] = tested on: U251 CNS
[9] = tested on: M14 melanoma
[10] = tested on: PC-3 prostate

Row | SMILES | GI50 [1] | TGI [1] | GI50 [2] | TGI [2] | GI50 [3] | TGI [3] | GI50 [4] | TGI [4] | GI50 [5] | TGI [5] | GI50 [6] | TGI [6] | GI50 [7] | TGI [7] | GI50 [8] | TGI [8] | GI50 [9] | TGI [9] | GI50 [10] | TGI [10]
1 | COc1cc(C2NC(=O)C(C#N)=C(Nc3cccc(C)c3)S2)ccc1O (stereo unspecified) | > 100 µM | > 100 µM | > 100 µM | > 100 µM | > 100 µM | > 100 µM | > 100 µM | > 100 µM | > 100 µM | > 100 µM | > 100 µM | > 100 µM | > 100 µM | > 100 µM | > 100 µM | > 100 µM | > 100 µM | > 100 µM | > 100 µM | > 100 µM
2 | CC(C)(C)[Si](C)(C)OC1[C@@H](COC(=O)NC(=O)CCl)O[C@@H](n2cnc3c(N)ncnc32)[C@H]1O[Si](C)(C)C(C)(C)C (stereo partly specified) | 1.54 µM | 5.63 µM | 6.72 µM | 13.8 µM | 2.3 µM | 5.88 µM | 0.922 µM | 1.85 µM | 5.44 µM | 12.2 µM | 1.36 µM | 3.36 µM | 1.9 µM | 4.79 µM | 2.84 µM | 7.91 µM | 1.39 µM | 4.23 µM | 3.15 µM | 9.79 µM
3 | COc1ccc(-c2[nH]ncc2Nc2cc(OC)c(OC)c(OC)c2)cc1 | 1.38 µM | 5.04 µM | 10.3 µM | > 100 µM | 3.29 µM | > 100 µM | 9.99 µM | > 89.6 µM | 1.86 µM | 25 µM | 0.42 µM | > 52.3 µM | 1.61 µM | 6.32 µM | 2.21 µM | > 100 µM | 0.906 µM | > 100 µM | 3.31 µM | > 100 µM
4 | COC(=O)c1cc2cc(/C=C3/SC(=S)N(N(C(C)=O)C(C)=O)C3=O)oc2n1Cc1ccccc1 | 29.4 µM | > 100 µM | 40.3 µM | > 100 µM | 29.7 µM | > 100 µM | 24.2 µM | 54.2 µM | 14.4 µM | 35 µM | 22.7 µM | 53.7 µM | 77.6 µM | > 100 µM | 12.8 µM | 30.8 µM | 11 µM | 40.6 µM | 37.8 µM | > 100 µM
5 | COc1ccc2nc3ccccc3c(NCCNCC(C)O)c2c1 (stereo unspecified) | 0.398 µM | 2.66 µM | 0.785 µM | 2.8 µM | 0.398 µM | 2.39 µM | 1.61 µM | 5.73 µM | 5.11 µM | 39.4 µM | 0.33 µM |  | 0.192 µM | 0.704 µM | 0.549 µM | 4.94 µM | 0.356 µM | 1.79 µM | 0.537 µM | 4.82 µM
6 | CCC(c1ccccc1)c1cc(C(C)(C)C)cc(C(C)(C)C)c1O (stereo unspecified) |  | 28.5 µM |  | 29 µM |  | 32.3 µM |  | 33.4 µM |  | 28.7 µM |  | 34 µM |  | 34.2 µM |  | 31.5 µM |  | 33.9 µM |  | 31.6 µM
7 | O=C1/C(=C/c2ccc([N+](=O)[O-])o2)Oc2ccc(Cl)cc21 | 1.37 µM | 4.72 µM | 1.93 µM | 3.83 µM | 1.35 µM | 3.87 µM | 1.67 µM | 3.32 µM | 3.36 µM | > 100 µM | 0.438 µM | 2.17 µM | 1.89 µM | 4.08 µM | 2.02 µM | 4.52 µM | 2.01 µM | 4.93 µM | 1.92 µM | 5.08 µM
8 | CC(=O)c1c(C)c2cnc(Nc3ccc(N4CCNCC4)cn3)nc2n(C2CCCC2)c1=O | 0.268 µM | 32.1 µM | 11.5 µM | 25.3 µM | 2.6 µM | 20.1 µM | 13.6 µM | 27.3 µM | 16.7 µM | 33.8 µM | 3.34 µM | 19.7 µM | 1.33 µM | 17.6 µM | 4.25 µM | 20.3 µM | 9.13 µM | 23.6 µM | 1.74 µM | 20.8 µM
9 | O=C(C(=CN1CCN(C(=O)c2ccco2)C1=S)C(=O)c1ccccc1)c1ccccc1 | 8.41 µM | > 50 µM | 12.1 µM | 25.6 µM | 8.71 µM | 18.7 µM | 9.96 µM | 26.4 µM | 9.18 µM | 19 µM | 3.24 µM | > 50 µM | 20 µM | > 50 µM | 2.66 µM | 25.8 µM | 7 µM | 13.8 µM | 23.6 µM | > 50 µM
10 | CC1=C[C@@H]2c3c(c(O)c(O)c4oc5cc(O)cc(O)c5c(=O)c34)[C@@H](c3cc(O)c(O)c4oc5cc(O)cc(O)c5c(=O)c34)[C@@H]2C(C)(C)C1 | 1.96 µM | 10.3 µM | 5.99 µM | 21 µM | 3.83 µM | 16.3 µM | 3.68 µM | 19.8 µM | 10.2 µM | 27.1 µM | 2.34 µM | 80 µM | 2.86 µM | 11.2 µM | 2.34 µM | 13.9 µM | 2.37 µM | 12.8 µM | 3.33 µM | 14 µM
11 | CCOC(=O)/C=C1/SC(=Nc2ccc(C#N)cc2)N(Cc2ccco2)C1=O | 2.4 µM | 7.46 µM | 7.65 µM | 25.3 µM | 1.45 µM | 2.86 µM | 10.8 µM | 52.6 µM | 3.42 µM | 90.8 µM | 3.16 µM | 11.4 µM |  |  | 2.07 µM | 4.06 µM | 2.22 µM | 6.55 µM | 3.11 µM | 9.96 µM
12 | Cc1cc(N(CCNc2ccnc3cc(Cl)ccc23)Cc2ccc3c(c2)OCO3)nc(N2CCCC2)n1 | 1.47 µM | 3.99 µM | 1.82 µM | 3.62 µM | 1.26 µM | 2.99 µM | 1.82 µM | 4.27 µM | 1.79 µM | 5.56 µM | 0.7 µM | 3.2 µM | 1.53 µM | 3.17 µM | 1.36 µM | 3.21 µM | 1.83 µM | 3.71 µM | 2.85 µM | 14 µM
13 | COc1ccc(C(O)c2ccccn2)cc1 (stereo unspecified) |  | > 100 µM |  | > 100 µM |  |  |  | > 100 µM |  | > 100 µM |  | > 100 µM |  | > 100 µM |  | > 100 µM |  | > 100 µM |  | > 100 µM
